Structures can show the parent of a compound that is named as a salt. Where two headings read alike, the source gives them in different places.
What was measured:
[1] = test system: IL-4 stimulated expression of CD23 in human Ramos B cells (JAK-1 and JAK-3); test: Assay for Ramos B-Cell Line Stimulated with IL-4 (CD23 upregulation, FACS); assay type: cell-based; settings: read-out: IC50, Example 41
Summary of the method: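 Read-out is surface CD23 by FACS after anti-CD23-PE staining, giving IC50. Before this, cells were stimulated 20-24 h with 50 units/mL (final) human IL-4, following 1 h compound or vehicle pre-treatment at 37 °C; log-phase Ramos B cells, 5×10^4 per well in 5% serum RPMI.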

Primary human T-cells = test: Primary Human T-Cell Proliferation Assay Stimulated with IL-2 (CellTiter-Glo); assay type: cell-based; settings: read-out: IC50, Example 42
Description: The activity of the active compounds of the invention may further be characterized by assaying the effect of the 2,4-substituted pyrimidinediamine compounds described herein on the proliferative response of primary human T-cells. In this assay, primary human T-cells derived from peripheral blood and pre-activated through stimulation of the T-cell receptor and CD28, proliferate in culture in response to the cytokine Interleukin-2 (IL-2). This proliferative response is dependent on the activation of JAK1 and JAK3 tyrosine kinases, which phosphorylate and activate the transcription factor Stat-5. The primary human T-cells are incubated with the 2,4-substituted pyrimidinediamine compounds in the presence of IL-2 for 72 hours and at the assay endpoint intracellular ATP concentrations are measured to assess cell viability. A reduction in cell proliferation compared to control conditions is indicative of inhibition of the JAK kinase pathway. An exemplary assay of this type is described in greater detail in Example 42
Primary human T-cells derived from peripheral blood and pre-activated through stimulation of the T-cell receptor and CD28, proliferate in vitro in response to the cytokine Interleukin-2 (IL-2). This proliferative response is dependent on the activation of JAK-1 and JAK-3 tyrosine kinases, which phosphorylate and activate the transcription factor Stat-5.
Human primary T cells were prepared as follows. Whole blood was obtained from a healthy volunteer, mixed 1:1 with PBS, layered on to Ficoll Hypaque (Amersham Pharmacia Biotech, Piscataway, NJ, Catalog #17-1440-03) in 2:1 blood/PBS:ficoll ratio and centrifuged for 30 min at 4° C. at 1750 rpm. The lymphocytes at the serum: ficoll interface were recovered and washed twice with 5 volumes of PBS. The cells were resuspended in Yssel's medium (Gemini Bio-products, Woodland, CA, Catalog #400-103) containing 40 U/mL recombinant IL2 (R and D Systems, Minneapolis, MN, Catalog #202-IL (20 rig)) and seeded into a flask pre-coated with 1 μg/mL anti-CD3 (BD Pharmingen, San Diego, CA, Catalog #555336) and 5 μg/mL anti-CD28 (Immunotech, Beckman Coulter of Brea CA, Catalog #IM1376). The primary T-cells were stimulated for 3-4 days, then transferred to a fresh flask and maintained in RPMI with 10% FBS and 40 U/mL IL-2.
Primary T-cells were washed twice with PBS to remove the IL-2 and resuspended in Yssel's medium at 2×10^6 cells/mL. 50 μL of cell suspension containing 80 U/mL IL-2 was added to each well of a flat bottom 96 well black plate. For the unstimulated control, IL-2 was omitted from the last column on the plate. Compounds were serially diluted in dimethyl sulfoxide (DMSO, 99.7% pure, cell culture tested, Sigma-Aldrich, St. Louis, MO, Catalog No. D2650) from 5 mM in 3-fold dilutions, and then diluted 1:250 in Yssel's medium. 50 μL of 2× compound was added per well in duplicate and the cells were allowed to proliferate for 72 hours at 37° C.
Proliferation was measured using CellTiter-Glo® Luminescent Cell Viability Assay (Promega), which determines the number of viable cells in culture based on quantitation of the ATP present, as an indicator of metabolically active cells. The substrate was thawed and allowed to come to room temperature. After mixing the Cell Titer-Glo reagent and diluent together, 100 μL was added to each well. The plates were mixed on an orbital shaker for two minutes to induce lysis and incubated at room temperature for an additional ten minutes to allow the signal to equilibrate. Detection was performed using a Wallac Victor2 1420 multilabel counter purchased from Perkin Elmer, Shelton, CT The IC50 calculated based on the results of this assay are provided in TABLE XII.

[2] = Ramos B-cell line stimulated with IL-4, CD23 expression by FACS
[3] = primary human T-cell proliferation stimulated with IL-2
[4] = Ramos B cells stimulated with IL-4, CD23 expression by FACS
[5] = primary human T-cells stimulated with IL-2, proliferation
[6] = Homo sapiens, Ramos, Ramos B-cell line stimulated with IL-4, CD23 expression by FACS
[7] = Homo sapiens, T-cell, primary human T-cell proliferation stimulated with IL-2

Cc1cc(COc2ccc(Nc3nc(Nc4ccc(Cl)c(S(N)(=O)=O)c4)ncc3F)cc2)no1 [Compound I-220, N2-(3-Aminosulfonyl-4-chlorophenyl)-5-fluoro-N4-[4-(5-methylisoxazol-3-yl)methyleneoxyphenyl]-2,4-pyrimidinediamine]
IC50 [1, 2]: 0.121 µM
IC50 (Primary human T-cells; [3]): 1.07 µM

Cc1cc(COc2ccc(Nc3nc(Nc4ccc(S(N)(=O)=O)cc4)ncc3F)cc2C)no1 [Compound I-240, N2-(4-Aminosulfonylphenyl)-5-fluoro-N4-[3methyl-4-(5-methylisoxazol-3-yl)methyleneoxyphenyl]-2,4-pyrimidinediamine]
IC50 [1, 2]: 0.205 µM
IC50 (Primary human T-cells; [3]): 5.26 µM

Cc1noc(COc2cccc(Nc3nc(Nc4ccc(S(N)(=O)=O)cc4)ncc3F)c2)n1 [Compound I-253, N2-(4-Aminosulfonylphenyl)-5-fluoro-N4-[3-(3-methyl-1,2,4-oxadiazol-5-yl)methyleneoxyphenyl]-2,4-pyrimidinediamine]
IC50 [1, 2]: 0.127 µM
IC50 (Primary human T-cells; [3]): 2.56 µM

Cc1cc(COc2ccc(Nc3nc(Nc4ccc(C)c(S(N)(=O)=O)c4)ncc3F)cn2)no1 [Compound V-1, N2-(3-Aminosulfonyl-4-methylphenyl)-5-fluoro-N4-[2-(5-methylisoxazol-3-yl)methyleneoxypyridin-5-yl]-2,4-pyrimidinediamine]
IC50 [1, 4]: 2 µM
IC50 (Primary human T-cells; [5]): 9.77 µM

CC1(C)Oc2cc(Nc3nc(Nc4ccc(Cl)c(S(N)(=O)=O)c4)ncc3F)cnc2N(CC#N)C1=O [Compound V-15, N2-(3-Aminosulfonyl-4-chlorophenyl)-N4-[2,2-dimethyl-3-oxo-4-cyanomethyl-5-pyrid[1,4]oxazin-7-yl]-5-fluoro-2,4-pyrimidinediamine]
IC50 [1, 4]: 0.173 µM
IC50 (Primary human T-cells; [5]): 9.31 µM

Cc1ccc(Nc2ncc(F)c(Nc3ccc(OC4CCN(C)CC4)c(Cl)c3)n2)cc1S(N)(=O)=O [II-8, N2-(3-Aminosulfonyl-4-methylphenyl)-5-fluoro-N4-{3-chloro-4-[(1-methylpiperidin-4-yl)oxy]phenyl}-2,4-pyrimidinediamine]
IC50 [1, 6]: 0.0388 µM
IC50 (Primary human T-cells; [7]): 0.564 µM

NS(=O)(=O)c1ccc(Nc2ncc(F)c(Nc3ccc(Oc4cccnc4)cc3)n2)cc1 [II-14, N2-(4-Aminosulfonylphenyl)-5-fluoro-N4-[4-(3-pyridyloxy)phenyl]-2,4-pyrimidinediamine]
IC50 [1, 6]: 0.0469 µM
IC50 (Primary human T-cells; [7]): 0.579 µM

NS(=O)(=O)c1cc(Nc2ncc(F)c(Nc3ccc(Oc4cccnc4)cc3)n2)cc(S(N)(=O)=O)c1 [II-15, N2-[3,5-bis(Aminosulfonyl)phenyl)-5-fluoro-N4-[4-(3-pyridyloxy)phenyl]-2,4-pyrimidinediamine]
IC50 [1, 6]: 0.982 µM
IC50 (Primary human T-cells; [7]): 1.1 µM

Cc1ccc(Nc2ncc(F)c(Nc3ccc(Oc4ccncc4)cc3)n2)cc1S(N)(=O)=O [II-16, N2-(3-Aminosulfonyl-4-methylphenyl)-5-fluoro-N4-[4-(4-pyridyloxy)phenyl]-2,4-pyrimidinediamine]
IC50 [1, 6]: 18.3 µM
IC50 (Primary human T-cells; [7]): 3.72 µM

NS(=O)(=O)c1cccc(Nc2ncc(F)c(Nc3ccc(Oc4ccncc4)cc3)n2)c1 [II-17, N2-(3-Aminosulfonylphenyl)-5-fluoro-N4-[4-(4-pyridyloxy)phenyl]-2,4-pyrimidinediamine]
IC50 [1, 6]: 21.2 µM
IC50 (Primary human T-cells; [7]): 8.21 µM

CNS(=O)(=O)c1cc(Nc2ncc(F)c(Nc3ccc(Oc4ccncc4)cc3)n2)ccc1C [II-18, 5-Fluoro-N2-[3-(N-methylaminosulfony)-4-methylphenyl]-5-fluoro-N4-[4-(4-pyridyloxy)phenyl]-2,4-pyrimidinediamine]
IC50 [1, 2]: 2.04 µM
IC50 (Primary human T-cells; [3]): 3.31 µM

N#CCCc1ccc(Nc2nc(Nc3ccc(Cl)c(S(N)(=O)=O)c3)ncc2F)cc1 [III-13, N2-(3-Aminosulfonyl-4-chlorophenyl)-N4-[4-(2-cyanoethyl)phenyl]-5-fluoro-2,4-pyrimidinediamine]
IC50 [1, 6]: 0.295 µM
IC50 (Primary human T-cells; [7]): 0.701 µM

Cc1cc(CCC#N)ccc1Nc1nc(Nc2cccc(S(N)(=O)=O)c2)ncc1F [III-24, N2-(3-Aminosulfonylphenyl)-N4-(4-cyanoethylene-2-methylphenyl)-5-fluoro-2,4-pyrimidinediamine]
IC50 [1, 2]: 0.258 µM
IC50 (Primary human T-cells; [3]): 1.62 µM

COc1cc(Nc2nc(Nc3ccc(C)c(S(N)(=O)=O)c3)ncc2F)ccc1CCC#N [III-25, N2-(3-Aminosulfonyl-4-methylphenyl)-N4-(4-cyanoethylene-3-methoxyphenyl)-5-fluoro-2,4-pyrimidinediamine]
IC50 [1, 2]: 0.272 µM
IC50 (Primary human T-cells; [3]): 1.26 µM

Cc1cc(CCC#N)ccc1Nc1nc(Nc2cccc(S(N)(=O)=O)c2)ncc1F [III-26, N2-(3-Aminosulfonylphenyl)-N4-(4-cyanoethylene-2-methylphenyl)-5-fluoro-2,4-pyrimidinediamine]
IC50 [1, 2]: 0.162 µM
IC50 (Primary human T-cells; [3]): 0.583 µM

CCC(=O)NS(=O)(=O)c1cc(Nc2ncc(F)c(Nc3ccc(C=CC#N)c(Cl)c3)n2)ccc1C [III-28, N4-(3-Chloro-4-cyanoethylene-phenyl)-5-fluoro-N2-(4-methyl-3-propionylaminosulfonylphenyl)-2,4-pyrimidinediamine]
IC50 [1, 2]: 3.75 µM
IC50 (Primary human T-cells; [3]): 17.4 µM

CCC(=O)NS(=O)(=O)c1cc(Nc2ncc(F)c(Nc3ccc(CCC#N)c(Cl)c3)n2)ccc1C [III-29, N4-(3-Chloro-4-cyanoethylene-phenyl)-5-fluoro-N2-(4-methyl-3-propionylaminosulfonylphenyl)-2,4-pyrimidinediamine Sodium salt]
IC50 [1, 2]: 3.63 µM
IC50 (Primary human T-cells; [3]): 12.4 µM

Cc1ccc(Nc2ncc(F)c(Nc3ccc(CCC#N)c(C(F)(F)F)c3)n2)cc1S(N)(=O)=O [III-30, N4-(4-Cyanoethylene-3-trifluoromethylphenyl)-5-fluoro-N2-(4-methyl-3-aminosulfonylphenyl)-2,4-pyrimidinediamine]
IC50 [1, 2]: 0.0645 µM
IC50 (Primary human T-cells; [3]): 0.319 µM

NC(=O)NCc1ccc(Nc2nc(Nc3ccc(S(N)(=O)=O)cc3)ncc2F)cc1 [III-32, N4-(4-Aminocarbonylaminomethylphenyl)-N2-(4-aminosulfonylphenyl)-5-fluoro-2,4-pyrimidinediamine]
IC50 [1, 6]: 4.4 µM
IC50 (Primary human T-cells; [7]): 3.32 µM

NC(=O)NCc1ccc(Nc2nc(Nc3cccc(S(N)(=O)=O)c3)ncc2F)cc1 [III-33, N4-(4-Aminocarbonylaminomethylphenyl)-N2-(3-aminosulfonylphenyl)-5-fluoro-2,4-pyrimidinediamine]
IC50 [1, 6]: 1.68 µM
IC50 (Primary human T-cells; [7]): 0.852 µM

Cc1ccc(Nc2ncc(F)c(Nc3ccc(CNC(N)=O)cc3)n2)cc1S(N)(=O)=O [III-34, N4-(4-Aminocarbonylaminomethylphenyl)-N2-(3-aminosulfonyl-4-methylphenyl)-5-fluoro-2,4-pyrimidinediamine]
IC50 [1, 6]: 0.473 µM
IC50 (Primary human T-cells; [7]): 0.381 µM

CCC(=O)NCc1ccc(Nc2nc(Nc3cccc(S(N)(=O)=O)c3)ncc2F)cc1 [III-36, N2-(3-aminosulfonyl)phenyl-N4-(4-ethylcarbonylaminomethyl)phenyl-5-fluoro-2,4-pyrimidinediamine]
IC50 [1, 2]: 0.394 µM
IC50 (Primary human T-cells; [3]): 0.382 µM

NS(=O)(=O)c1ccc(Nc2ncc(F)c(Nc3cccc(CNC(=O)C4CC4)c3)n2)cc1 [III-38, N2-(4-aminosulfonyl)phenyl-N4-(3-cyclopropylcarbonylaminomethyl)phenyl-5-fluoro-2,4-pyrimidinediamine]
IC50 [1, 2]: 0.198 µM
IC50 (Primary human T-cells; [3]): 1.13 µM

From US11827628B2, “Compositions and methods for inhibition of the JAK pathway” (Rigel Pharmaceuticals, Inc., priority 2005, dated 2023)
